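All cell lines were grown in 96-well plates and treated with compound for 48 hours. GI50 is the concentration that inhibits growth by half.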 Calls of active or inactive are those of the source. Rule as the data show it: active = GI50 up to about 1.1 µM and inactive = higher.

The values that follow come from ChEMBL document CHEMBL1201862, “PubChem BioAssay data set” (2004).

Some test systems named below: MDA-N; 786-0; OVCAR-3; OVCAR-8; M14; Hs-578T; EKVX; MOLT-4; SK-MEL-5; SK-MEL-28; MDA-MB-231; KM12; RXF 393; SF-295; UACC-62; NCI/ADR-RES; U-251; MDA-MB-435; SF-539; SNB-75.
What all share (assay): NCI tumour cell line growth inhibition, 48 h

As for `COc1cc(/C=C2\C(=O)N(Cc3ccccc3)C(c3ccccc3)S2(=O)=O)cc(OC)c1OC` (configuration not stated), the GI50 with MDA-N was 61.8 µM (inactive); in the assay with 786-0, 29.6 µM (inactive); in the assay on OVCAR-3, 47.3 µM (inactive); with OVCAR-8 it was 37.2 µM (inactive); in the assay on M14, 52.7 µM (inactive); in the assay with Hs-578T it was 9.73 µM (inactive). The GI50 in the assay with EKVX was 17.1 µM (inactive); with MOLT-4, 4.11 µM (inactive); in the assay on SK-MEL-5 it was 12 µM (inactive); with SK-MEL-28, 93.8 µM (inactive); with MDA-MB-231 it was > 100 µM (inactive); in the assay on KM12, 34.7 µM (inactive). The GI50 in the assay on RXF 393 was 62.7 µM (inactive); in the assay on SF-295, 27 µM (inactive); in the assay on UACC-62, 35.2 µM (inactive); in the assay on NCI/ADR-RES, 27.6 µM (inactive); in the assay on U-251, 92.3 µM (inactive); in the assay on MDA-MB-435, 41.9 µM (inactive).

For `CC(C)(C)c1ccc2c(c1)C#Cc1cc3c(cc1OCCCO2)C#Cc1cc(C(C)(C)C)ccc1OCCCO3`, the GI50 with MDA-N, in the assay on 786-0, in the assay on OVCAR-3, in the assay on OVCAR-8, in the assay on M14 and with Hs-578T was > 100 µM (inactive) in each case. The GI50 with SF-539, in the assay on EKVX, with MOLT-4, with SK-MEL-5, in the assay on SK-MEL-28 and with MDA-MB-231 was > 100 µM (inactive) in each case. Further, the GI50 with KM12 is > 100 µM (inactive); with RXF 393, > 100 µM (inactive); in the assay on SF-295, > 100 µM (inactive); in the assay on UACC-62, > 100 µM (inactive); with NCI/ADR-RES it was 10.6 µM (inactive); in the assay on U-251 it was > 100 µM (inactive). The GI50 with MDA-MB-435 is > 100 µM (inactive).

For the molecule `CN(C)N1C(=O)c2ccccc2NC1c1ccccc1` (configuration not stated), the GI50 in the assay with MDA-N, with 786-0, with OVCAR-3, in the assay on OVCAR-8, with M14 and in the assay with Hs-578T was > 100 µM (inactive) each time. Besides, the GI50 with SF-539, with EKVX, with MOLT-4, in the assay with SK-MEL-5, with SK-MEL-28 and in the assay with MDA-MB-231 was > 100 µM (inactive) in each case. Moreover, the GI50 in the assay on KM12, in the assay on SNB-75, with SF-295, with UACC-62, in the assay with NCI/ADR-RES and in the assay on U-251 was > 100 µM (inactive) each time. Also, the GI50 with MDA-MB-435 is > 100 µM (inactive).

Turning to `Cc1cc(O)c(O)c(Oc2cc(C)cc(O)c2O)c1`, the GI50 in the assay on MDA-N was 18.7 µM (inactive); in the assay on 786-0, 18.2 µM (inactive); with OVCAR-3 it was 4.48 µM (inactive); with OVCAR-8, 16.2 µM (inactive); with M14, 14.3 µM (inactive); in the assay on Hs-578T it was 48.4 µM (inactive). Moreover, the GI50 with SF-539 is 23.3 µM (inactive); in the assay with EKVX, 16 µM (inactive); with MOLT-4, 10 µM (inactive); in the assay on SK-MEL-5, 33.9 µM (inactive); with SK-MEL-28, 32.2 µM (inactive); with MDA-MB-231 it was 20.3 µM (inactive). Also, the GI50 with KM12 was 22 µM (inactive); with RXF 393, 24.5 µM (inactive); in the assay on SNB-75 it was 75.7 µM (inactive); in the assay on SF-295 it was 14.8 µM (inactive); in the assay on UACC-62, 11.7 µM (inactive); with U-251, 9.79 µM (inactive). Further, the GI50 in the assay with MDA-MB-435 was 12.7 µM (inactive).

For `COc1cccc(C2CC(=O)c3cc(N4CCCC4)ccc3N2)c1` (configuration not stated), the GI50 in the assay with MDA-N is 0.00269 µM (active); in the assay on 786-0, 0.0404 µM (active); with OVCAR-3, 0.0344 µM (active); in the assay on OVCAR-8, 0.037 µM (active); in the assay on M14, 0.0234 µM (active); in the assay with Hs-578T, 0.01 µM (active). For the same molecule, the GI50 is 0.0272 µM (active) in the assay with SF-539; 0.27 µM (active) in the assay on EKVX; 0.0338 µM (active) with MOLT-4; 0.0252 µM (active) in the assay on SK-MEL-5; 0.0766 µM (active) in the assay with MDA-MB-231; 0.0861 µM (active) in the assay on KM12. The GI50 is 0.0177 µM (active) in the assay with RXF 393; 0.0358 µM (active) in the assay on SF-295; 0.0449 µM (active) with UACC-62; 0.0173 µM (active) with NCI/ADR-RES; 0.0248 µM (active) in the assay on U-251; 0.00794 µM (active) in the assay with MDA-MB-435.

For the molecule `COc1cccc(CCCNC(=O)Cc2ccccc2CO)c1`, the GI50 in the assay with MDA-N, in the assay on 786-0, with OVCAR-3, in the assay on OVCAR-8, in the assay with M14 and in the assay on Hs-578T was > 100 µM (inactive) in each case. The GI50 with SF-539, in the assay with EKVX, in the assay on MOLT-4, in the assay on SK-MEL-5, in the assay with SK-MEL-28 and with MDA-MB-231 was > 100 µM (inactive) each time. Further, the GI50 in the assay with KM12, with SNB-75, with SF-295, with UACC-62, in the assay on NCI/ADR-RES and in the assay on U-251 was > 100 µM (inactive) each time. The GI50 in the assay with MDA-MB-435 was > 100 µM (inactive).

For `CCCCCCSc1nc(COC(=O)NC)c(COC(=O)NC)n1C`, the GI50 with MDA-N, in the assay with 786-0, in the assay on OVCAR-3, with OVCAR-8, in the assay with M14 and in the assay on Hs-578T was > 100 µM (inactive) each time. For the same molecule, the GI50 in the assay on SF-539, in the assay with EKVX, with MOLT-4, in the assay with SK-MEL-5, in the assay on SK-MEL-28 and in the assay on MDA-MB-231 was > 100 µM (inactive) in each case. In addition, the GI50 in the assay with KM12, in the assay with SNB-75, in the assay on SF-295, with UACC-62, with NCI/ADR-RES and with U-251 was > 100 µM (inactive) each time. For the same molecule, in the assay with MDA-MB-435, the GI50 was > 100 µM (inactive).

With `O=C(O)CSCc1cc2c(O)c(c1)Cc1cc(CSCC(=O)O)cc(c1O)Cc1cc(CSCC(=O)O)cc(c1O)Cc1cc(CSCC(=O)O)cc(c1O)C2`, the GI50 with MDA-N, with 786-0, with OVCAR-3, in the assay on OVCAR-8, in the assay with M14 and with Hs-578T was > 100 µM (inactive) in each case. In addition, the GI50 in the assay with SF-539, in the assay on EKVX, in the assay with MOLT-4, in the assay on SK-MEL-28, in the assay with KM12 and in the assay with RXF 393 was > 100 µM (inactive) in each case. For the same molecule, the GI50 in the assay on SF-295 is > 100 µM (inactive); with NCI/ADR-RES, > 100 µM (inactive); with U-251, > 100 µM (inactive); in the assay on MDA-MB-435, 61.1 µM (inactive).

As to `COc1ccc([C@@]23Oc4cc(OC)cc(OC)c4[C@]2(O)[C@H](O)[C@H](C(=O)N(C)C)[C@H]3c2ccccc2)cc1` [ROCAGLAMIDE], the GI50 in the assay with MDA-N is 0.00355 µM (active); in the assay with 786-0, 0.00953 µM (active); in the assay with OVCAR-3 it was 0.056 µM (active); in the assay on OVCAR-8 it was 0.0109 µM (active); in the assay on M14, 0.00327 µM (active); in the assay with Hs-578T it was 0.00875 µM (active). Also, the GI50 with EKVX was 0.0203 µM (active); with MOLT-4, 0.00192 µM (active); in the assay on SK-MEL-5, 0.00301 µM (active); in the assay with SK-MEL-28, 0.00689 µM (active); in the assay with MDA-MB-231, 0.00776 µM (active); in the assay on KM12 it was 0.00294 µM (active). Besides, the GI50 is 0.0206 µM (active) in the assay on RXF 393; 0.00935 µM (active) in the assay with SNB-75; 0.0045 µM (active) in the assay with SF-295; 0.00676 µM (active) in the assay with UACC-62; 0.0306 µM (active) with NCI/ADR-RES; 0.00605 µM (active) with U-251. For the same molecule, the GI50 in the assay with MDA-MB-435 was 0.0036 µM (active).

Consider `CC1(C)CC2C(/C1=N/O)C1(C)CCCC2(C)C1O` (configuration not stated), for which the GI50 in the assay on MDA-N, in the assay with 786-0, with OVCAR-3, in the assay with OVCAR-8, in the assay with M14 and with Hs-578T was > 100 µM (inactive) throughout. Also, the GI50 in the assay with EKVX, in the assay with MOLT-4, in the assay with SK-MEL-5, in the assay on SK-MEL-28, with KM12 and with SNB-75 was > 100 µM (inactive) in each case. In addition, the GI50 in the assay with SF-295, in the assay on UACC-62, in the assay on NCI/ADR-RES, in the assay with U-251 and in the assay on MDA-MB-435 was > 100 µM (inactive) each time.

On to `CN(C)CCCNC(=O)c1cc2/c(=C\c3ccc(N(C)C)cc3)c3ccccc3n2[n+]1C`, for which the GI50 in the assay on MDA-N was 24.4 µM (inactive); in the assay on 786-0 it was 52.8 µM (inactive); with OVCAR-3, 15.4 µM (inactive); with OVCAR-8, 40.8 µM (inactive); in the assay on M14 it was 21.4 µM (inactive); with Hs-578T, > 100 µM (inactive). The GI50 in the assay on SF-539 was 21.2 µM (inactive); in the assay with EKVX it was 17.9 µM (inactive); with MOLT-4, 34.8 µM (inactive); with SK-MEL-5 it was 15.6 µM (inactive); in the assay on SK-MEL-28, 30.8 µM (inactive); with MDA-MB-231, 21.5 µM (inactive). Moreover, the GI50 in the assay on KM12 was 24.7 µM (inactive); in the assay with RXF 393, > 100 µM (inactive); in the assay on SF-295 it was 40.3 µM (inactive); in the assay on UACC-62 it was 17.3 µM (inactive); in the assay on NCI/ADR-RES, > 100 µM (inactive); in the assay on U-251 it was 22.4 µM (inactive). For the same molecule, the GI50 in the assay with MDA-MB-435 was 24.9 µM (inactive).
